Some test systems named below: HT-29; SK-MEL-5; 786-0; NCI-H226; RPMI-8226; SF-295; CAKI-1; HOP-62; HOP-92; ACHN; KM12; K562; UO-31; OVCAR-8; SR; LOX IMVI; HCT-116; CCRF-CEM; SK-OV-3; MCF7.
Common to all, as to assay: NCI-60 cell line screen, 48 h

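48-hour exposure; five concentrations; linearly interpolated endpoints. GI50 marks 50% less growth.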 Activity calls are given as the source filed them. Cut-off read from the data, not from the text of the source: active = GI50 up to about 1.1 µM and inactive = higher. Bounds are passed on as bounds.

Consider `CC(NC1=NCCO1)c1cccc([N+](=O)[O-])c1` (stereo not given), for which the GI50 with HT-29, with SK-MEL-5, in the assay with 786-0, in the assay with NCI-H226, in the assay on RPMI-8226 and in the assay with SF-295 was > 100 µM (inactive) in each case. The GI50 was > 100 µM (inactive) with CAKI-1; > 100 µM (inactive) with HOP-62; 30 µM (inactive) in the assay on HOP-92; > 100 µM (inactive) in the assay on ACHN; > 100 µM (inactive) with KM12; > 100 µM (inactive) in the assay on K562. In addition, the GI50 in the assay with UO-31, in the assay with OVCAR-8, in the assay with SR, in the assay with LOX IMVI, in the assay on HCT-116 and in the assay on CCRF-CEM was > 100 µM (inactive) each time. Further, the GI50 in the assay with SK-OV-3 and in the assay with MCF7 was > 100 µM (inactive) throughout.

As for `CCOCC(=O)N[C@H]1CCc2cc(OC)c(OC)c(OC)c2-c2ccc(OC)c(=O)cc21`, the GI50 with HT-29 is 0.0146 µM (active); with SK-MEL-5, 0.0133 µM (active); with 786-0, 0.0199 µM (active); in the assay with NCI-H226, 0.0762 µM (active); in the assay with RPMI-8226, 0.0778 µM (active); in the assay with SF-295 it was 0.0206 µM (active). The GI50 in the assay on CAKI-1 is 0.0577 µM (active); with HOP-62, 0.0232 µM (active); in the assay with HOP-92, 0.0303 µM (active); in the assay on ACHN, 0.0962 µM (active); in the assay on KM12, 0.0129 µM (active); with K562 it was < 0.0128 µM (active). In addition, the GI50 in the assay with UO-31 was 3.56 µM (inactive); in the assay on OVCAR-8 it was 0.0194 µM (active); in the assay on SR, < 0.0206 µM (active); in the assay with LOX IMVI, < 0.0125 µM (active); in the assay on HCT-116 it was 0.014 µM (active); with CCRF-CEM it was 0.0444 µM (active). The figures for the GI50 in the assay with SK-OV-3 and in the assay with MCF7 were 0.111 µM (active) and 0.0207 µM (active), respectively.

For the compound `Cc1ccc2c(c1)c1ccc3c(c1n2C)C(=O)C=CC3=O`, the GI50 with HT-29 is > 10 µM (inactive); with SK-MEL-5 it was 4.56 µM (inactive); with 786-0, 1.95 µM (inactive); with NCI-H226, > 6.85 µM (inactive); in the assay on RPMI-8226 it was 1.23 µM (inactive); in the assay with SF-295, > 10 µM (inactive). In addition, the GI50 was 2.36 µM (inactive) with CAKI-1; > 10 µM (inactive) with HOP-62; 2.03 µM (inactive) in the assay with HOP-92; 1.56 µM (inactive) in the assay on ACHN; 6.84 µM (inactive) with KM12; 0.468 µM (active) with K562. The GI50 in the assay on UO-31 was 1.41 µM (inactive); with OVCAR-8 it was 2.18 µM (inactive); with SR, 0.27 µM (active); in the assay on LOX IMVI it was 9.53 µM (inactive); in the assay on HCT-116, 1.51 µM (inactive); in the assay with CCRF-CEM, 0.284 µM (active). The GI50 with SK-OV-3 was > 10 µM (inactive); with MCF7, 1.8 µM (inactive).

As for `COc1ccc(-c2cn3c(nc4ccccc43)c(C)n2)cc1`, the GI50 with HT-29 was > 100 µM (inactive); in the assay on SK-MEL-5, 21.5 µM (inactive); in the assay with 786-0, 41 µM (inactive); with NCI-H226 it was > 68.5 µM (inactive); in the assay on RPMI-8226 it was > 75.9 µM (inactive); in the assay on SF-295 it was 55 µM (inactive). For the same compound, the GI50 is 52.1 µM (inactive) in the assay with CAKI-1; 31.8 µM (inactive) in the assay with HOP-62; 21.7 µM (inactive) with HOP-92; 45.2 µM (inactive) with ACHN; > 100 µM (inactive) with KM12; > 100 µM (inactive) with K562. The GI50 in the assay on UO-31 was 13.7 µM (inactive); with OVCAR-8 it was 34.4 µM (inactive); in the assay on SR it was > 77.4 µM (inactive); with LOX IMVI it was > 93.5 µM (inactive); in the assay with HCT-116, 85.1 µM (inactive); in the assay on CCRF-CEM, > 100 µM (inactive). In addition, the GI50 was 10.2 µM (inactive) in the assay on SK-OV-3 and 12.2 µM (inactive) in the assay with MCF7.

On to `Cc1cccc(O)c1-c1nnc(CCCCCCCCc2nnc(-c3c(C)cccc3O)n2N)n1N`, for which the GI50 is > 100 µM (inactive) in the assay with HT-29; > 100 µM (inactive) in the assay with SK-MEL-5; 2.67 µM (inactive) in the assay on 786-0; 55.7 µM (inactive) with NCI-H226; > 100 µM (inactive) in the assay on RPMI-8226; 51.6 µM (inactive) in the assay with SF-295. For the same compound, the GI50 is > 100 µM (inactive) in the assay with CAKI-1; 27.6 µM (inactive) in the assay on HOP-62; 18 µM (inactive) in the assay with HOP-92; > 85.7 µM (inactive) in the assay with ACHN; 95.1 µM (inactive) in the assay with KM12; > 100 µM (inactive) with K562. The GI50 with UO-31 was 68.5 µM (inactive); with OVCAR-8, 1.86 µM (inactive); in the assay with SR, 19.1 µM (inactive); with LOX IMVI, 45.2 µM (inactive); with HCT-116, 72.3 µM (inactive); in the assay with CCRF-CEM it was 0.929 µM (active). In addition, the GI50 with SK-OV-3 is > 60.5 µM (inactive); in the assay with MCF7, 55 µM (inactive).

Regarding `Cc1cc(C)c(S(=O)(=O)N(CCCN)OCCON(CCCN)S(=O)(=O)c2c(C)cc(C)cc2C)c(C)c1`, the GI50 in the assay with HT-29 is 10 µM (inactive); in the assay on SK-MEL-5 it was 8.2 µM (inactive); in the assay with 786-0, 3.93 µM (inactive); with NCI-H226, 4.44 µM (inactive); with RPMI-8226, 2.05 µM (inactive); in the assay on SF-295, 20.2 µM (inactive). Besides, the GI50 was 26.2 µM (inactive) in the assay with CAKI-1; 3.01 µM (inactive) in the assay on HOP-62; 6.24 µM (inactive) in the assay on HOP-92; 23.7 µM (inactive) with ACHN; 2.17 µM (inactive) in the assay on KM12; 2.96 µM (inactive) in the assay with K562. The GI50 in the assay on UO-31 is 23.3 µM (inactive); with OVCAR-8, 12.6 µM (inactive); with SR, 3.12 µM (inactive); in the assay on LOX IMVI, 2.44 µM (inactive); with HCT-116, 2.24 µM (inactive); in the assay on CCRF-CEM, 2.71 µM (inactive). The GI50 with SK-OV-3 is 5.01 µM (inactive); with MCF7, 2.59 µM (inactive).

`Clc1nss/c1=N/c1nonc1-c1ccccc1`: the GI50 with HT-29 is 22 µM (inactive); in the assay with SK-MEL-5, 20.3 µM (inactive); with 786-0, 30.5 µM (inactive); in the assay with NCI-H226 it was 29.6 µM (inactive); with RPMI-8226, 27.2 µM (inactive); in the assay with SF-295, 55.2 µM (inactive). Moreover, the GI50 in the assay with CAKI-1 is 17.1 µM (inactive); with HOP-62, 51.3 µM (inactive); in the assay on HOP-92, 40.2 µM (inactive); in the assay with ACHN, 18.6 µM (inactive); in the assay with KM12, 31 µM (inactive); with K562, 23.2 µM (inactive). Moreover, the GI50 in the assay with UO-31 was 17.6 µM (inactive); with OVCAR-8, 28.6 µM (inactive); in the assay with SR, 18.4 µM (inactive); in the assay on LOX IMVI it was 27.3 µM (inactive); with HCT-116 it was 34.9 µM (inactive); in the assay on CCRF-CEM, 17.9 µM (inactive). Moreover, the GI50 was > 100 µM (inactive) in the assay with SK-OV-3 and 22.7 µM (inactive) with MCF7.

The values above are taken from ChEMBL document CHEMBL1201862, “PubChem BioAssay data set” (2004).
